Source: patent publication US20260176266A1, “PIPERIDINOPYRIMIDINE DERIVATIVE, PREPARATION METHOD THEREFOR AND USE THEREOF IN MEDICINE” (TUOJIE BIOTECH (SHANGHAI) CO., LTD., priority 2022, published 2026)

Tests used:
[1] = system: MDA-MB-468 breast cancer cells; test: Inhibitory activity against tumor cells, CellTiter-Glo: MDA-MB-468; format: cell-based; conditions: Homo sapiens, 120 h, MDA-MB-468, 5 days treatment
Description: (§1) MCF7 (ATCC #HTB-22) and T47D (ATCC #HTB-133) breast cancer cells and PANC-1 (ATCC #CRL-1469) pancreatic cancer cells were purchased from ATCC. MDA-MB-231 (Cobioer #CBP60382), HCC1806 (Cobioer #CBP60373), and MDA-MB-468 (Cobioer #CBP60387) breast cancer cells, HCT-116 (Cobioer #CBP60028) colorectal cancer cells, and OCI-AML-3 (Cobioer #CBP60817) and MV-4-11 (Cobioer #CBP60522) leukemia cells were purchased from Nanjing Cobioer Biosciences Co., Ltd.
(§2) OCI-AML-3 was cultured in RPMI 1640 medium with 20% FBS; HCC1806 and T47D were cultured in RPMI 1640 medium with 10% FBS; MCF7, MDA-MB-231, MDA-MB-468, and PANC-1 were cultured in DMEM medium with 10% FBS; MV-4-11 was cultured in IMDM medium with 20% FBS; HCT-116 was cultured in MC′5A medium with 10% FBS.
(§3) Palbociclib-resistant cells were constructed on MCF7 parent cells, designated MCF7 Palbo-R, and the culture conditions were consistent with those of the parent cells. All tumor cells were cultured in a cell incubator at 37° C. with 5% CO2. The cells were seeded at corresponding cell densities (600 cells/well for MDA-MB-231; 500 cells/well for MDA-MB-468, PANC-1, and HCT-116; 200 cells/well for MCF7 and HCC1806; 800 cells/well for MCF7 Palbo-R; 3000 cells/well for OCI-AML-3 and MV-4-11) in 384-well plates and cultured overnight in the incubator. On the second day, the cells were treated with compounds. The maximum compound concentration was 10 μM and was 3-fold diluted to obtain 9 concentrations, each tested in duplicate, and the final concentration of DMSO was 0.1%. The cells continued to be cultured in the incubator, with MDA-MB-231, PANC-1, MDA-MB-468, OCI-AML-3, and MV-4-11 being treated with drugs for 5 days and HCC1806, MCF7, MCF7 Palbo-R, and HCT116 being treated with drugs for 7 days. Cell viability was tested using the Celltiter Glo assay kit (Promega), and the testing method was consistent with the operational method provided by the kit. Readings were taken using an Envision multimode microplate reader. Data were processed using GraphPad Prism 8, and IC50 was calculated. […]

MV-4-11 leukemia cells = test: Inhibitory activity against tumor cells, CellTiter-Glo: MV-4-11; format: cell-based; conditions: Homo sapiens, MV4-11, 120 h, MV-4-11, 5 days treatment
Description: as §1, §2, §3

CDK2/CyclinE1 = CDK2/CyclinE1 (Homo sapiens, UniProt P24941); test: ADP-Glo kinase assay, CDK2; format: biochemical; conditions: 1 nM CDK2/CyclinE1, 15 μM ATP (Km), Histone H1, 60 min; read-out: inhibitory activity (IC50, nM) CDK2
Description: (§4) The ADP-Glo kinase assay was used for testing the activity of CDKs. The compounds were diluted in 384-well plates using Echo. The starting concentration was 10 μM and was 3-fold diluted to obtain 10 concentration points, each tested in duplicate, and the final concentration of DMSO in the assay system was 1%. CDK solutions (the final concentrations were 16.5 nM CDK1/CyclinB, 1 nM CDK2/CyclinE1, 16.3 nM CDK4/CyclinD1, 11.5 nM CDK5/p25, 15.7 nM CDK6/CyclinD3, 80 nM CDK7/Cyclin H/MAT1, 15.3 nM CDK9/Cyclin T1, and 150 nM CDK12/CyclinK) prepared in assay buffer were added at 2.5 μL, and the enzymes and compounds were pre-incubated at room temperature for 10 min. ATP (the concentration was Km) & substrate solutions (20 μM ATP & 0.1 mg/mL Histone H1 Protein for CDK1/CyclinB, 15 μM ATP & 0.1 mg/mL Histone H1 Protein for CDK2/CyclinE1, 200 μM ATP & 0.2 mg/mL DYRKtide peptide for CDK4/CyclinD1, 10 μM ATP & 0.1 mg/mL Histone H1 Protein for CDK5/p25, 200 μM ATP & 0.1 mg/mL Histone H1 Protein for CDK6/CyclinD3, 70 μM ATP & 0.2 mg/mL MBP for CDK7/Cyclin H/MAT1, 60 μM ATP & 0.2 mg/mL PDKtide for CDK9/Cyclin T1, and 20 μM ATP & 80 μM pS7-CTD peptide for CDK12/CyclinK) prepared in assay buffer were added at 2.5 μL. After thorough mixing, the plates were incubated at room temperature, with CDK1/4/9/12/13 incubated for 120 min and CDK2/5/6/7 incubated for 60 min. ADP-Glo reagents were added at 4 μL, and the plates were incubated at room temperature for 40 min. Kinase detection reagents were added at 8 μL, and the plates were incubated at room temperature for 40 min. Readings were taken using an Envision multimode microplate reader. Data were processed using GraphPad Prism 8, and IC50 was calculated.
[formula] • X: the logarithm of the compound concentration; Y: % inhibition.

T47D breast cancer cells = test: Inhibitory activity against tumor cells, CellTiter-Glo: T47D; format: cell-based; conditions: Homo sapiens
Description: as §1, §2
(§5) Palbociclib-resistant cells were constructed on MCF7 parent cells, designated MCF7 Palbo-R, and the culture conditions were consistent with those of the parent cells. All tumor cells were cultured in a cell incubator at 37° C. with 5% CO2. The cells were seeded at corresponding cell densities (600 cells/well for MDA-MB-231; 500 cells/well for MDA-MB-468, PANC-1, and HCT-116; 200 cells/well for MCF7 and HCC1806; 800 cells/well for MCF7 Palbo-R; 3000 cells/well for OCI-AML-3 and MV-4-11) in 384-well plates and cultured overnight in the incubator. On the second day, the cells were treated with compounds. The maximum compound concentration was 10 μM and was 3-fold diluted to obtain 9 concentrations, each tested in duplicate, and the final concentration of DMSO was 0.1%. The cells continued to be cultured in the incubator, with MDA-MB-231, PANC-1, MDA-MB-468, OCI-AML-3, and MV-4-11 being treated with drugs for 5 days and HCC1806, MCF7, MCF7 Palbo-R, and HCT116 being treated with drugs for 7 days. Cell viability was tested using the Celltiter Glo assay kit (Promega), and the testing method was consistent with the operational method provided by the kit. Readings were taken using an Envision multimode microplate reader. Data were processed using GraphPad Prism 8, and IC50 was calculated.
(§6) Y=Bottom+(Top−Bottom)/(1+10^((Log IC50−X)×HillSlope)). Calculation formula: • X: the logarithm of the compound concentration; Y: % inhibition.

CDK1/CyclinB = CDK1/CyclinB (Homo sapiens, UniProt P06493); test: ADP-Glo kinase assay, CDK1; format: biochemical; conditions: 16.5 nM CDK1/CyclinB, 20 μM ATP (Km), Histone H1, 120 min; read-out: inhibitory activity (IC50, nM) CDK1
Sequence of CDK1/CyclinB (P06493 whole entry, species assumed): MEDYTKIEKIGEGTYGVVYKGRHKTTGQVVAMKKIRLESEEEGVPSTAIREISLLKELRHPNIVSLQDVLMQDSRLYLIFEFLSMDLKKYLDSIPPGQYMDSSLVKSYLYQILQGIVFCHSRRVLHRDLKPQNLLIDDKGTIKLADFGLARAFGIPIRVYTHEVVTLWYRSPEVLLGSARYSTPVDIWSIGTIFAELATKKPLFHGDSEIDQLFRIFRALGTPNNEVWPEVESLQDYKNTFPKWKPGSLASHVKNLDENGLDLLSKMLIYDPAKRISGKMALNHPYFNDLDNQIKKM
Sequence of CDK1/CyclinB (P14635 whole entry partner, species assumed): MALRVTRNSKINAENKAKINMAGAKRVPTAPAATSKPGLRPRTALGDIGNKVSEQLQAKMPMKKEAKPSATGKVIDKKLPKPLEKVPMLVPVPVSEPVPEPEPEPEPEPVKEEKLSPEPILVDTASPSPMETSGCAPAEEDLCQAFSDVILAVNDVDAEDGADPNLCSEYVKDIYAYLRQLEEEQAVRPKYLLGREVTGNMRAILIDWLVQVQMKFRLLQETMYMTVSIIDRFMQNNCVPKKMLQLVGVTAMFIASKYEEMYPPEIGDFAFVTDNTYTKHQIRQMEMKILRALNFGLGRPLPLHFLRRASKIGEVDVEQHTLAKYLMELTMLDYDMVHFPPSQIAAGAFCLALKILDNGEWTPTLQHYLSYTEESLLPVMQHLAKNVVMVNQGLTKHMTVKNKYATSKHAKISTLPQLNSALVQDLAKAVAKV
Description: as §4, with “After thorough mixing, the plates were incubated at room temperature, with CDK1/4/9/12/13 incubated for 120 min and CDK2/5/6/7 incubated for 60 min. ADP-Glo reagents were added at 4 μL, and the plates were incubated at room temperature for 40 min. Kinase detection reagents were added at 8 μL, and the plates were incubated at room temperature for 40 min.” left out, “calculated. […]” for “calculated.”

MCF7 breast cancer cells = test: Inhibitory activity against tumor cells, CellTiter-Glo: MCF7; format: cell-based; conditions: Homo sapiens, 168 h, MCF7, 7 days treatment
Description: as §1, §2, §3

[2] = system: HCC1806 breast cancer cells; test: Inhibitory activity against tumor cells, CellTiter-Glo: HCC1806; format: cell-based; conditions: Homo sapiens, 168 h, HCC1806, 7 days treatment
Description: as §1, §2, §3

CDK5/p25 = CDK5/p25 (Homo sapiens, UniProt Q00535); test: ADP-Glo kinase assay, CDK5; format: biochemical; conditions: 11.5 nM CDK5/p25, 10 μM ATP (Km), Histone H1, 60 min; read-out: inhibitory activity (IC50, nM) CDK5
Sequence of CDK5/p25 (Q00535 whole entry, species assumed): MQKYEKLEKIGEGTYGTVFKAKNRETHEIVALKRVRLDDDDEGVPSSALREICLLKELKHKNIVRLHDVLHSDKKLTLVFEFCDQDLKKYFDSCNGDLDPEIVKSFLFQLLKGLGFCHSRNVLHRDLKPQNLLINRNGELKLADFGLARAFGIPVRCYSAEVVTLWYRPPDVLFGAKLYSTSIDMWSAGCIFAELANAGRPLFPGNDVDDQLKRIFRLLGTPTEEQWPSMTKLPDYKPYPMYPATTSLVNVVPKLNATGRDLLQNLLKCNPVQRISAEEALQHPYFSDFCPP
Sequence of CDK5/p25 (Q15078 99-307 partner limits assumed, species assumed): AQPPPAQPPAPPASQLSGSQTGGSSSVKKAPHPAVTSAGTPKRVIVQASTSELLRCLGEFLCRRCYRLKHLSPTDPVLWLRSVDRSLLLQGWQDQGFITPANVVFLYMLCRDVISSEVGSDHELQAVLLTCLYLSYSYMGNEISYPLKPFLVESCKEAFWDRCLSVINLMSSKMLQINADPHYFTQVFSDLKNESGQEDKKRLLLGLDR
Description: as §4, with “After thorough mixing, the plates were incubated at room temperature, with CDK1/4/9/12/13 incubated for 120 min and CDK2/5/6/7 incubated for 60 min. ADP-Glo reagents were added at 4 μL, and the plates were incubated at room temperature for 40 min. Kinase detection reagents were added at 8 μL, and the plates were incubated at room temperature for 40 min.” left out, “calculated. […]” for “calculated.”

[3] = system: PANC-1 pancreatic cancer cells; test: Inhibitory activity against tumor cells, CellTiter-Glo: PANC-1; format: cell-based; conditions: Homo sapiens, 120 h, PANC-1, 5 days treatment
Description: as §1, §2, §3

CDK9/Cyclin T1 = CDK9/Cyclin T1 (Homo sapiens, UniProt P50750); test: ADP-Glo kinase assay, CDK9; format: biochemical; conditions: 15.3 nM CDK9/Cyclin T1, 60 μM ATP (Km), PDKtide, 120 min; read-out: inhibitory activity (IC50, nM) CDK9
Sequence of CDK9/Cyclin T1 (P50750 whole entry, species assumed): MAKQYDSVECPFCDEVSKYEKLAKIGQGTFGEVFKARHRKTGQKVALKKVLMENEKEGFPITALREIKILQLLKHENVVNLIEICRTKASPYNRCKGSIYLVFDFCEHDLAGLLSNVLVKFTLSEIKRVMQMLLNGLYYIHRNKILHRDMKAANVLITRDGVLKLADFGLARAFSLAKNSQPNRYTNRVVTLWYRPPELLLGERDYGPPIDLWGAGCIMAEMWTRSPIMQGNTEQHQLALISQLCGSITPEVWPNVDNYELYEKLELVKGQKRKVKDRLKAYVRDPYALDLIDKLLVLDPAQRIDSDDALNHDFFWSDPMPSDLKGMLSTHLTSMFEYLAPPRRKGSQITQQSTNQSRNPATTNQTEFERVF
Sequence of CDK9/Cyclin T1 (O60563 whole entry partner, species assumed): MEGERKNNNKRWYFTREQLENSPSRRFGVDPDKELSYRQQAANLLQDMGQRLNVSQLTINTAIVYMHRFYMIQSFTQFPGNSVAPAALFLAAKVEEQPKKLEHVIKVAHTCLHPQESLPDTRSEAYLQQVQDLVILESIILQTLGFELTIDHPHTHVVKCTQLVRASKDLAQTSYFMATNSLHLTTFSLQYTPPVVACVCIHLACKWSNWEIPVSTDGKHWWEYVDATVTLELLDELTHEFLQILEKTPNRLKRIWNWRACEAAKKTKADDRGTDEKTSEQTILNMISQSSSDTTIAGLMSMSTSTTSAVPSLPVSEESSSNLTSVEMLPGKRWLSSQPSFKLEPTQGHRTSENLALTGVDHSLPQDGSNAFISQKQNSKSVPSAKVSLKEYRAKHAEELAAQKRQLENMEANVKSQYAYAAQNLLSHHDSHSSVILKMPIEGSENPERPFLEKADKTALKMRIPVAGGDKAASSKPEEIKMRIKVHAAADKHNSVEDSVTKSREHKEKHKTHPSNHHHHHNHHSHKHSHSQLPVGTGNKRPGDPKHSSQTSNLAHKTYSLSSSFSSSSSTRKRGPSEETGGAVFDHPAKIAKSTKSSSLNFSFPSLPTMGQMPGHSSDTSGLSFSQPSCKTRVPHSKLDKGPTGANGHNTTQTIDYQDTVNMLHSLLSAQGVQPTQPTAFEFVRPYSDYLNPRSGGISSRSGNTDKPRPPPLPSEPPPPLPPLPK
Description: as §4, with “After thorough mixing, the plates were incubated at room temperature, with CDK1/4/9/12/13 incubated for 120 min and CDK2/5/6/7 incubated for 60 min. ADP-Glo reagents were added at 4 μL, and the plates were incubated at room temperature for 40 min. Kinase detection reagents were added at 8 μL, and the plates were incubated at room temperature for 40 min.” left out, “calculated. […]” for “calculated.”

[4] = system: HCT-116 colorectal cancer cells; test: Inhibitory activity against tumor cells, CellTiter-Glo: HCT-116; format: cell-based; conditions: Homo sapiens, 168 h, HCT-116, 7 days treatment
Description: as §1, §2, §5, §6

**Q.** Which results are given for `C[C@H](Nc1ncc2c(n1)CN(C(=O)N[C@H](CN(C)C)c1ccccc1)[C@H](C)C2)c1ccccn1` [Example 6, (R)—N—((S)-2-(Dimethylamino)-1-phenylethyl)-6-methyl-2-(((S)-1-(pyridin-2-yl)ethyl)amino)-5,8-dihydropyrido[3,4-d]pyrimidine-7(6H)-carboxamide]?
**A.** IC50 [1]: 21.2 nM; IC50 (MV-4-11 leukemia cells): 19.1 nM; IC50 (CDK2/CyclinE1): 1900 nM; IC50 (T47D breast cancer cells): 22.2 nM; IC50 (CDK1/CyclinB): > 10000 nM; IC50 (MCF7 breast cancer cells): 11.8 nM; IC50 [2]: 23.7 nM; IC50 (CDK5/p25): 6420 nM; IC50 [3]: 17.7 nM; IC50 (CDK9/Cyclin T1): 4270 nM; IC50 [4]: 46.9 nM

**Q.** With `C[C@@H]1Cc2cnc(NCc3ccn(C)n3)nc2CN1C(=O)N[C@H](CN(C)C)c1ccccc1` [Example 2, (R)—N—((S)-2-(Dimethylamino)-1-phenylethyl)-6-methyl-2-(((1-methyl-TH-pyrazol-3-yl)methyl)amino)-5,8-dihydropyrido[3,4-d]pyrimidine-7(6H)-carboxamide] as the compound, how does the IC50 [1] read?
**A.** The IC50 was 30 nM.

**Q.** What about the IC50 (MV-4-11 leukemia cells) of the same compound?
**A.** The IC50 was 18.2 nM.

**Q.** And the IC50 (CDK2/CyclinE1)?
**A.** The IC50 was 2330 nM.

**Q.** What about the IC50 (T47D breast cancer cells) of the same compound?
**A.** The IC50 was 31 nM.

**Q.** What about the IC50 (CDK1/CyclinB) of the same compound?
**A.** Its IC50 is over 10000 nM.

**Q.** What about the IC50 (MCF7 breast cancer cells) of the same compound?
**A.** Its IC50 is 14.6 nM.

**Q.** And the IC50 [2]?
**A.** The IC50 was 28.6 nM.

**Q.** What about the IC50 (CDK5/p25) of the same compound?
**A.** Its IC50 is 6310 nM.

**Q.** And the IC50 [3]?
**A.** The IC50 was 45.9 nM.

**Q.** And the IC50 (CDK9/Cyclin T1)?
**A.** The IC50 was 1580 nM.

**Q.** And the IC50 [4]?
**A.** The IC50 was 75.6 nM.
